Assays:
Proteasome [1] = assay: Inhibition of chymotrypsin like activity of the proteasome purified from lymphoblastoid cell lines (in vitro); assay type: subcellular
Proteasome [2] = assay: Inhibition of post-acidic-like (PGPH) activity of the proteasome purified from lymphoblastoid cell lines (in vitro)
Proteasome [3] = assay: Inhibition of trypsin like activity of the proteasome purified from lymphoblastoid cell lines (in vitro); assay type: subcellular
[4] = Half-life in human plasma by incubation at […]; assay type: ADME, cell-free
[5] = Half-life in culture medium (RPMI) in the presence of 10% foetal calf serum by incubation at […]; assay type: ADME; conditions: cattle, culture medium (RPMI) with 10% foetal calf serum
Proteasome [6] = assay: Inhibition of trypsin like activity of the proteasome in colon carcinoma cell lines HCT116; assay type: subcellular
Proteasome [7] = assay: Inhibition of trypsin like activity of the proteasome in colon carcinoma cell lines COO115; assay type: subcellular

| SMILES | IC50 (Proteasome [1]) [nM] | IC50 (Proteasome [2]) [nM] | IC50 (Proteasome [3]) [nM] | half-life [4] [h] | half-life [5] [h] | IC50 (Proteasome [6]) [nM] | IC50 (Proteasome [7]) [nM] |
| --- | --- | --- | --- | --- | --- | --- | --- |
| CCOC(=O)/C=C/[C@H](CC(C)C)NC(=O)[C@H](CO)NC(=O)[C@@H](NC(=O)OCc1ccccc1)C(C)C | > 10000 | > 10000 | 71 | 3.97 | > 6 | – | – |
| CCOC(=O)/C=C/[C@H](CC(C)C)NC(=O)[C@H](CC(C)C)NC(=O)[C@H](CC(C)C)NC(=O)c1cccc(O)c1C | 4210 | > 10000 | 41 | > 6 | > 6 | – | 41 |
| CCOC(=O)/C=C/[C@H](CC(C)C)NC(=O)[C@H](CC(C)C)NC(=O)[C@H](CC(C)C)NC(=O)C1=CCCNC1 | 860 | > 10000 | 210 | > 6 | > 6 | – | – |
| CCOC(=O)/C=C/[C@H](CC(C)C)NC(=O)[C@H](CC(C)C)NC(=O)[C@H](CC(C)C)NC(=O)C1=CCCN(C(=O)OC(C)(C)C)C1 | 4360 | > 10000 | 190 | 3.3 | > 6 | – | – |
| CCOC(=O)/C=C/[C@H](CC(C)C)NC(=O)[C@H](CC(C)C)NC(=O)[C@H](CC(C)C)NC(=O)OCc1ccccc1 | 2450 | > 10000 | 280 | 4.87 | > 6 | – | – |

Next, values leading:

| IC50 (Proteasome [1]) [nM] | IC50 (Proteasome [2]) [nM] | IC50 (Proteasome [3]) [nM] | half-life [4] [h] | half-life [5] [h] | IC50 (Proteasome [6]) [nM] | IC50 (Proteasome [7]) [nM] | SMILES |
| --- | --- | --- | --- | --- | --- | --- | --- |
| 6540 | > 10000 | 380 | > 6 | > 6 | – | – | CCOC(=O)/C=C/[C@H](CC(C)C)NC(=O)[C@H](CO)NC(=O)[C@@H](NC(=O)C1=CCCNC1)C(C)C |
| > 10000 | > 10000 | 33 | > 6 | > 6 | 33 | – | CCOC(=O)/C=C/[C@H](CC(C)C)NC(=O)[C@H](CO)NC(=O)[C@@H](NC(=O)c1cccc(O)c1C)C(C)C |
| > 10000 | > 10000 | 110 | 2.57 | > 6 | – | – | CCOC(=O)/C=C/[C@H](CC(C)C)NC(=O)[C@H](CO)NC(=O)[C@@H](NC(=O)C1=CCCN(C(=O)OC(C)(C)C)C1)C(C)C |

Source: ChEMBL document CHEMBL1140347, “Peptidyl vinyl ester derivatives: new class of selective inhibitors of proteasome trypsin-like activity” (J Med Chem, 2005)
